# According to patent US11078185B2, “Mycobacterium tuberculosis—thioredoxin reductase inhibitor as an antitubercular agent” (Technische Universität Dortmund, priority 2017, dated 2021):
# Where “and” joins values, the source holds several entries; their conditions need not be identical. Equal entries are not always repeated.
# Tests used:
# [1] = assay type: in vitro ADME
# Method: Selected compounds were investigated in terms of their permeability with the aid of the PAMPA assay (Parallel Artificial Membrane Permeation Assay). The permeability of the compounds across an artificial membrane of phospholipids was tested in a filter plate. Since a significant difference existed between the artificial membrane and the mycobacterial cell wall, the values should only be used as a measure to be able to evaluate the permeability of the compounds with respect to each other. For this purpose, the distribution between a donor and acceptor chamber without membrane was determined as the reference value (100% flux), in which the concentration of the compounds in the chambers was determined spectrophotometrically. Subsequently, the permeability of compounds 1, 8, 63 and 68 across the membrane used was determined. The PAMPA flux [%] value was 12.60 for compound 1, 29.70 for compound 8, 53.60 for compound 63, and 41.00 for compound 68.
# [2] = molecular target: MtTrxR (Mycobacterium tuberculosis thioredoxin reductase) (Mycobacterium tuberculosis, UniProt P9WHH1); experiment: MtTrxR activity assay according to Lu et al. (DTNB assay); assay type: biochemical; conditions: error range = standard deviation
# MtTrxR (Mycobacterium tuberculosis thioredoxin reductase), sequence (P9WHH1 whole entry): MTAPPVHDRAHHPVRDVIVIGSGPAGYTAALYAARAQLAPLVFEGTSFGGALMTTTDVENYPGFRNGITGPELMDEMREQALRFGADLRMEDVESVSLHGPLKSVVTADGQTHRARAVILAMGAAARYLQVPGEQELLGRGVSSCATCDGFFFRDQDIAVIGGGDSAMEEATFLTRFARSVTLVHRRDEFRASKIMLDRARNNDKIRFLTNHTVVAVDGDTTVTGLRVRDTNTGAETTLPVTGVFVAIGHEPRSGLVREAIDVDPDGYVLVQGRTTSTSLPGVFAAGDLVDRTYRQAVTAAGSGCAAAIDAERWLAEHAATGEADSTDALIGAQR
# Method: The compounds according to the invention show good inhibitory activity towards MtTrxR. In a preferred embodiment, the compounds according to the invention have an IC50 value according to Lu et al. from 0.10 to 10.00 μM. Methods for determining the IC50 value according to Lu et al. are known to those skilled in the art. Reference is made in this respect to J. Lu, A. Vlamis-Gardikas, K. Kandasamy, R. Zhao, T. N. Gustafsson, L. Engstrand, S. Hoffner, L. Engman, A. Holmgren, FASEB J. 2013, 27, 1394-1403.
# (§1) A biochemical evaluation of the inhibitory activity (i.e. the IC50 value) of the compounds obtained towards MtTrxR by means of an activity assay according to Lu et al. (error range indicated by the standard deviation) was conducted. The testing of the potential inhibitors against MtTrxR was performed according to the description of Lu et al. Furthermore, MIC50 values (generic minimum inhibitory concentration) of certain compounds were measured with the BD BACTEC™ MGIT™ system: […]
# [3] = system: Mycobacterium tuberculosis; experiment: MIC50 measured with the BD BACTEC MGIT system; assay type: cell-based; conditions: read-out: MIC50 [μM] (μG/mL)
# Method: as §1
# [4] = system: Mycobacterium tuberculosis; experiment: Antimycobacterial activity (FIG. 1); assay type: cell-based
# Description: FIG. 1 is directed to the antimycobacterial activity of compounds 2, 8 and 68 according to the invention.
# human macrophages = assay type: cell-based
# Description: FIG. 3 is directed to the cytotoxic activity of compound 68 according to the invention against human macrophages.
# [5] = system: Mycobacterium tuberculosis strain H37Rv in infected human macrophages; experiment: Antimycobacterial activity in infected human macrophages (FIG. 2); assay type: cell-based
# Description: FIG. 2 is directed to the antimycobacterial activity of compound 68 according to the invention against Mycobacterium tuberculosis strain H37Rv in infected human macrophages.
SMILES,PAMPA flux [%] [1] [%],IC50 [2],MIC50 [3] [µM],antimycobacterial activity [4],cytotoxicity towards macrophages (human macrophages),antimycobacterial activity in infected human macrophages [5]
"COc1ccc2nc(C)cc(Nc3ccc(O)cc3)c2c1 [Compound 1, 4-((6-Methoxy-2-methylquinolin-4-yl)amino)phenol, reference compound]",12.60,11.5 ± 1.52 µM,,,,
"COc1ccc2nc(C)cc(Nc3ccc(S(=O)(=O)c4ccc(Nc5ccncc5)cc4)cc3)c2c1 [Compound 2, 6-methoxy-2-methyl-N-(4-((4-(pyridin-4-ylamino)phenyl)sulfonyl)phenyl)quinolin-4-amine]",,0.25 ± 0.04 µM,8 to 32,concentration-dependent antimycobacterial activity,,
"COc1ccc2nc(C)cc(Nc3ccc(Cc4ccc(N)cc4)cc3)c2c1 [Compound 8, N-(4-(4-aminobenzyl)phenyl)-6-methoxy-2-methylquinolin-4-amine]",29.70,1.8 µM,4 to 8,concentration-dependent antimycobacterial activity,,
"COc1ccc2nc(C)cc(Nc3ccc(S(=O)(=O)c4ccc(N)cc4)cc3)c2c1 [Compound 9, N-(4-((4-aminophenyl)sulfonyl)phenyl)-6-methoxy-2-methylquinolin-4-amine]",,5.21 ± 0.24 µM,,,,
"COc1ccc2nc(C)cc(Nc3ccc(S(=O)(=O)c4ccc(NC(C)=O)cc4)cc3)c2c1 [Compound 10, N-(4-((4-((6-methoxy-2-methylquinolin-4-yl)amino)phenyl)sulfonyl)phenyl)acetamide]",,3.59 ± 1.95 µM,,,,
"COc1ccc2nc(C)cc(Nc3ccc(S(=O)(=O)c4ccc(Nc5ccncn5)cc4)cc3)c2c1 [Compound 24, 6-methoxy-2-methyl-N-(4-((4-(pyrimidin-4-yl-amino)phenyl)sulfonyl)phenyl)quinolin-4-amine]",,0.51 ± 0.04 µM,8 to 32,,,
"COc1ccc2nc(C)cc(Nc3ccc(S(=O)(=O)c4ccc(Nc5cc(C(C)(C)C)n[nH]5)cc4)cc3)c2c1 [Compound 25, N-(4-((4-((3-(tert-butyl)-1H-pyrazol-5-yl)amino)phenyl)sulfonyl)phenyl)-6methoxy-2-methylquinolin-4-amine]",,9.1 ± 0.3 µM,,,,
"COc1ccc(Nc2ccc(S(=O)(=O)c3ccc(Nc4cc(C)nc5ccc(OC)cc45)cc3)cc2)cc1 [Compound 26, 6-methoxy-N-(4-((4-((4-methoxyphenyl)amino)phenyl)sulfonyl)phenyl)-2-methylquinolin-4-amine]",,1.9 ± 0.8 µM,8 to 32,,,
"COC(=O)c1ccc(Nc2ccc(S(=O)(=O)c3ccc(Nc4cc(C)nc5ccc(OC)cc45)cc3)cc2)cc1 [Compound 27, methyl-4-((4-((4-((6-methoxy-2-methylquinolin-4-yl)amino)phenyl)sulfonyl)phenyl)amino) benzoate]",,4.8 ± 1.6 µM,,,,
"COc1ccc2nc(C)cc(Nc3ccc(C(=O)c4ccc(Nc5ccncc5)cc4)cc3)c2c1 [Compound 45, (4-((6-methoxy-2-methylquinolin-4-yl)amino)phenyl)(4-(pyridin-4-yl-amino)phenyl)methanone]",,1.04 ± 0.2 µM,> 32,,,
"COc1ccc2nc(C)cc(Nc3ccc(Cc4ccc(Nc5ccncc5)cc4)cc3)c2c1 [Compound 63, 6-methoxy-2-methyl-N-(4-(4-(pyridin-4-ylamino)benzyl)phenyl)quinolin-4-amine]",53.60,5.64 µM and 4.7 µM,8 to 32,,,
"COc1ccc2nc(C)cc(Nc3ccc(Cc4ccc(Nc5ccncn5)cc4)cc3)c2c1 [Compound 68, 6-methoxy-2-methyl-N-(4-(4-(pyrimidin-4-ylamino)benzyl)phenyl)quinolin-4-amine]",41.00,2.03 µM and 1.7 µM,2 to 8,concentration-dependent antimycobacterial activity,without being toxic,concentration-dependent antimycobacterial activity
